Article PMC10078150 (2023)

How the values were obtained:
[1] = tested on: F21T_hTelo (DNA, G4) GGGTTAGGGTTAGGGTTAGGG; assay: FRET melting; conditions: K+ 10 mM (potassium phosphate); 10 mM potassium phosphate pH 7; 0.8 µM compound, 0.4 µM DNA, no competitor dsDNA
[2] = tested on: 22_hTelo (DNA, G4) AGGGTTAGGGTTAGGGTTAGGG; assay: fluorescent indicator displacement; conditions: K+ 40 mM (30 mM KCl + potassium phosphate); 10 mM potassium phosphate pH 7, 25 °C; 0.5 µM thiazole orange displaced, 0.25 µM DNA
[3] = tested on: 22_c-kit1 (DNA, G4) AGGGAGGGCGCTGGGAGGAGGG; assay: fluorescent indicator displacement; conditions: K+ 40 mM (30 mM KCl + potassium phosphate); 10 mM potassium phosphate pH 7, 25 °C; 0.5 µM thiazole orange displaced, 0.25 µM DNA
[4] = tested on: 22_c-myc (DNA, G4) TGAGGGTGGGTAGGGTGGGTAA; assay: fluorescent indicator displacement; conditions: K+ 40 mM (30 mM KCl + potassium phosphate); 10 mM potassium phosphate pH 7, 25 °C; 0.5 µM thiazole orange displaced, 0.25 µM DNA
[5] = tested on: 21_c-kit2 (DNA, G4) CGGGCGGGCGCGAGGGAGGGG; assay: fluorescent indicator displacement; conditions: K+ 40 mM (30 mM KCl + potassium phosphate); 10 mM potassium phosphate pH 7, 25 °C; 0.5 µM thiazole orange displaced, 0.25 µM DNA
[6] = tested on: 22_k-ras (DNA, G4) AGGGCGGTGTGGGAATAGGGAA; assay: fluorescent indicator displacement; conditions: K+ 40 mM (30 mM KCl + potassium phosphate); 10 mM potassium phosphate pH 7, 25 °C; 0.5 µM thiazole orange displaced, 0.25 µM DNA
[7] = tested on: F21T_c-myc (DNA, G4) GAGGGTGGGTAGGGTGGGTAA; assay: FRET melting; conditions: K+ 10 mM (potassium phosphate); 10 mM potassium phosphate pH 7; 0.8 µM compound, 0.4 µM DNA, no competitor dsDNA
[8] = tested on: 26_ds (DNA, duplex) CAATCGGATCGAATTCGATCCGATTG; assay: fluorescent indicator displacement; conditions: K+ 40 mM (30 mM KCl + potassium phosphate); 10 mM potassium phosphate pH 7, 25 °C; 0.5 µM thiazole orange displaced, 0.25 µM DNA
[9] = tested on: F20T_c-kit2 (DNA, G4) GGGCGGGCGCGAGGGAGGGG; assay: FRET melting; conditions: K+ 10 mM (potassium phosphate); 10 mM potassium phosphate pH 7; 0.8 µM compound, 0.4 µM DNA, no competitor dsDNA
[10] = tested on: F21T_k-ras (DNA, G4) GGGCGGTGTGGGAATAGGGAA; assay: FRET melting; conditions: K+ 10 mM (potassium phosphate); 10 mM potassium phosphate pH 7; 0.8 µM compound, 0.4 µM DNA, no competitor dsDNA
[11] = tested on: F21T_c-kit1 (DNA, G4) GGGAGGGCGCTGGGAGGAGGG; assay: FRET melting; conditions: K+ 10 mM (potassium phosphate); 10 mM potassium phosphate pH 7; 0.8 µM compound, 0.4 µM DNA, no competitor dsDNA

ΔTm [1] [°C]	DC50 [2] [nM]	DC50 [3] [nM]	DC50 [4] [nM]	DC50 [5] [nM]	DC50 [6] [nM]	ΔTm [7] [°C]	DC50 [8] [nM]	ΔTm [9] [°C]	ΔTm [10] [°C]	ΔTm [11] [°C]	Compound
27.6	2200 ± 100	960 ± 40	530 ± 20	1050 ± 40	420 ± 20	11.7	3800 ± 200	19.8	–	–	C(=N\[C@H](COCc1ccc(-c2ccccn2)nc1)c1ccccc1)/c1ccccn1.C(=N\[C@H](COCc1ccc(-c2ccccn2)nc1)c1ccccc1)/c1ccccn1.C(=N\[C@H](COCc1ccc(-c2ccccn2)nc1)c1ccccc1)/c1ccccn1.[Fe+2].[Fe+2]
24.6	1060 ± 30	870 ± 20	400 ± 30	850 ± 50	450 ± 20	–	3900 ± 200	–	21.0	23.7	C(=N\[C@@H](COCc1ccc(-c2ccccn2)nc1)c1ccccc1)/c1ccc(OCc2cn(Cc3ccccc3)nn2)cn1.C(=N\[C@@H](COCc1ccc(-c2ccccn2)nc1)c1ccccc1)/c1ccc(OCc2cn(Cc3ccccc3)nn2)cn1.C(=N\[C@@H](COCc1ccc(-c2ccccn2)nc1)c1ccccc1)/c1ccc(OCc2cn(Cc3ccccc3)nn2)cn1.[Fe+2].[Fe+2]
–	1950 ± 90	1410 ± 30	800 ± 40	1260 ± 60	650 ± 30	–	5300 ± 300	–	–	27.2	C(=N\[C@@H](COCc1ccc(-c2ccccn2)nc1)c1ccccc1)/c1ccccn1.C(=N\[C@@H](COCc1ccc(-c2ccccn2)nc1)c1ccccc1)/c1ccccn1.C(=N\[C@@H](COCc1ccc(-c2ccccn2)nc1)c1ccccc1)/c1ccccn1.[Fe+2].[Fe+2]
–	1050 ± 50	790 ± 30	300 ± 30	780 ± 50	270 ± 10	5.2	2600 ± 100	11.9	41.8	–	C(=N\[C@H](COCc1ccc(-c2ccccn2)nc1)c1ccccc1)/c1ccc(OCc2cn(Cc3ccccc3)nn2)cn1.C(=N\[C@H](COCc1ccc(-c2ccccn2)nc1)c1ccccc1)/c1ccc(OCc2cn(Cc3ccccc3)nn2)cn1.C(=N\[C@H](COCc1ccc(-c2ccccn2)nc1)c1ccccc1)/c1ccc(OCc2cn(Cc3ccccc3)nn2)cn1.[Fe+2].[Fe+2]
